From ChEMBL document CHEMBL1201862, “PubChem BioAssay data set” (2004)
Where a name gives a salt, the structure may show the parent alone. Active and inactive are the calls of the source.

Assays:
[1] = target: T1, Dual specificity protein phosphatase 6 (Rattus norvegicus, UniProt Q64346); experiment: MKP-3 phosphatase inhibitors, primary screen, biochemical, rat enzyme, in vitro (AID 425)
T1 sequence (Q64346 whole entry): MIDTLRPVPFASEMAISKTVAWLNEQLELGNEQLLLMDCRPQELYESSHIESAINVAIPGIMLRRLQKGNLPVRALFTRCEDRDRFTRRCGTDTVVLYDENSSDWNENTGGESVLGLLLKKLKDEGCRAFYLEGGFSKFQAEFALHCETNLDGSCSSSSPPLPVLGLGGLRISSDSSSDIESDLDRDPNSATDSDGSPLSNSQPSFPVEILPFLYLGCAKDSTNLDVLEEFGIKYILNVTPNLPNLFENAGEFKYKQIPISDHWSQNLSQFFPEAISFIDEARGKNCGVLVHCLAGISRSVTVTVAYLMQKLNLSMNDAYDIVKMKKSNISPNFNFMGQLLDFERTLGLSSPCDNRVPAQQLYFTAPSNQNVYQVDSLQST

[2] = target: Transitional endoplasmic reticulum ATPase (Homo sapiens, UniProt P55072); experiment: Luminescence dose response biochemical high throughput screening assay for inhibitors of the p97 ATPase: synthesized compounds. [Related pubchem assays: 1481, 1517 ]
[3] = target: Transitional endoplasmic reticulum ATPase (Homo sapiens, UniProt P55072, C522A); experiment: Luminescence counterscreen assay for p97 inhibitors: dose response biochemical high throughput screening assay to identify inhibitors of the C522A mutant p97 ATPase: synthesized compounds. [Related pubchem assays: 1481, 1517, 1551 ]
[4] = target: UDP-galactopyranose mutase (Mycobacterium tuberculosis, UniProt P9WIQ1); experiment: Inhibitors of Mycobacterium tuberculosis UDP-galactopyranose mutase (UGM) enzyme Measured in Biochemical System Using Plate Reader - 2105-02_Inhibitor_Dose_CherryPick_Activity. [Related pubchem assays (depositor defined):AID504439]
Streptococcus = experiment: Group A Streptococcus viability loss, dose response, counter-screen for streptokinase expression inhibitor project, luminescence, BacTiterGlo (AID 1915); type: functional, organism-based;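 further: potency for reduction of bacterial viability or growth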
Protein S100-A4 = Protein S100-A4 (Homo sapiens, UniProt P26447); experiment: S100A4-myosin IIA binding inhibitor potency, dose response, biochemical, fluorescence polarization, cherry-picked hits (AID 687001); type: functional
14-3-3 protein gamma = 14-3-3 protein gamma (Homo sapiens, UniProt P61981); experiment: modulators of 14-3-3 gamma client binding – dose response (AID 711); type: functional
ORF 73 = target: T2, ORF 73 (Human herpesvirus 8, UniProt O40947); experiment: inhibitors of C-LANA binding to LBS DNA, dose response, biochemical, fluorescence polarization, cherry-picked samples (AID 504725); set-up: species or system Human gammaherpesvirus 8;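 further: fluorescence polarization of a labeled DNA duplex reporting LANA DNA binding; potency is for inhibitors that block LANA binding to the DNA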
T2 sequence (O40947 whole entry): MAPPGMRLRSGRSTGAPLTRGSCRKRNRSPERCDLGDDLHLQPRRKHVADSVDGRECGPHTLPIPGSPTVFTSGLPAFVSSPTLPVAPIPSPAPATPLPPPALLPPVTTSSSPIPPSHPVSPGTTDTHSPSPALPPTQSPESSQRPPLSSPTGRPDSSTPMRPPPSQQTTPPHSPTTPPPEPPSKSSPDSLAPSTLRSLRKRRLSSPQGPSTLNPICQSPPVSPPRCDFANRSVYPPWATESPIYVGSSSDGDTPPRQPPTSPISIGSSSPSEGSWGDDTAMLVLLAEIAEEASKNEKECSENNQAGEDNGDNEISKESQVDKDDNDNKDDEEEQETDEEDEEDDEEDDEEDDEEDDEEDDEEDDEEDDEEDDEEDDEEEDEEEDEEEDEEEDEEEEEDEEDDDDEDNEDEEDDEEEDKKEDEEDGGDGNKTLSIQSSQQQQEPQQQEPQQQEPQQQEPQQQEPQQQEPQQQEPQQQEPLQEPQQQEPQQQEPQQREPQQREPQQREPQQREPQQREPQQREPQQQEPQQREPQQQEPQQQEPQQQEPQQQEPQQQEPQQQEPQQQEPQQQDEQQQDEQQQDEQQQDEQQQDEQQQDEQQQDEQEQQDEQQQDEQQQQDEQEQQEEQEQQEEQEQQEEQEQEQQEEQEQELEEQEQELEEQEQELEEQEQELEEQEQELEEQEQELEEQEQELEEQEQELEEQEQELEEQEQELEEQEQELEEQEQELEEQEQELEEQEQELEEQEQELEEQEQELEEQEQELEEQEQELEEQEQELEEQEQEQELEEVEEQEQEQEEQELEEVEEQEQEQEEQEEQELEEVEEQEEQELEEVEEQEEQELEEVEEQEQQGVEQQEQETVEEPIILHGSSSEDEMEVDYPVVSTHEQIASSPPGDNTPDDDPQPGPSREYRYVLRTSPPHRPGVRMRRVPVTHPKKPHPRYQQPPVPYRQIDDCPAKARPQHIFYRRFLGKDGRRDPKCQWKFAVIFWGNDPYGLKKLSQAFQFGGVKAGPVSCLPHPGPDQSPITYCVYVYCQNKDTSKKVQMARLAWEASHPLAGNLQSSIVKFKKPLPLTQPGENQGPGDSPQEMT

[5] = tested on: Streptococcus sp. 'group A'; experiment: growth inhibition of control SK(-) GAS strain, dose response, counter-screen for streptokinase expression inhibitor project, luminescence, kanamycin, BacTiterGlo, confirmation (AID 1900); type: functional, organism-based
HeLa = experiment: HeLa cell cytotoxicity, dose response, cytotoxicity control, 24 h, cherry-picked samples (AID 504726); type: functional, cell-based; conditions: Homo sapiens;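 further: potency for cytotoxicity as loss of luminescence signal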
[6] = target: T3, Apoptotic protease-activating factor 1 (Homo sapiens, UniProt O14727); type: functional
T3 sequence (O14727 whole entry): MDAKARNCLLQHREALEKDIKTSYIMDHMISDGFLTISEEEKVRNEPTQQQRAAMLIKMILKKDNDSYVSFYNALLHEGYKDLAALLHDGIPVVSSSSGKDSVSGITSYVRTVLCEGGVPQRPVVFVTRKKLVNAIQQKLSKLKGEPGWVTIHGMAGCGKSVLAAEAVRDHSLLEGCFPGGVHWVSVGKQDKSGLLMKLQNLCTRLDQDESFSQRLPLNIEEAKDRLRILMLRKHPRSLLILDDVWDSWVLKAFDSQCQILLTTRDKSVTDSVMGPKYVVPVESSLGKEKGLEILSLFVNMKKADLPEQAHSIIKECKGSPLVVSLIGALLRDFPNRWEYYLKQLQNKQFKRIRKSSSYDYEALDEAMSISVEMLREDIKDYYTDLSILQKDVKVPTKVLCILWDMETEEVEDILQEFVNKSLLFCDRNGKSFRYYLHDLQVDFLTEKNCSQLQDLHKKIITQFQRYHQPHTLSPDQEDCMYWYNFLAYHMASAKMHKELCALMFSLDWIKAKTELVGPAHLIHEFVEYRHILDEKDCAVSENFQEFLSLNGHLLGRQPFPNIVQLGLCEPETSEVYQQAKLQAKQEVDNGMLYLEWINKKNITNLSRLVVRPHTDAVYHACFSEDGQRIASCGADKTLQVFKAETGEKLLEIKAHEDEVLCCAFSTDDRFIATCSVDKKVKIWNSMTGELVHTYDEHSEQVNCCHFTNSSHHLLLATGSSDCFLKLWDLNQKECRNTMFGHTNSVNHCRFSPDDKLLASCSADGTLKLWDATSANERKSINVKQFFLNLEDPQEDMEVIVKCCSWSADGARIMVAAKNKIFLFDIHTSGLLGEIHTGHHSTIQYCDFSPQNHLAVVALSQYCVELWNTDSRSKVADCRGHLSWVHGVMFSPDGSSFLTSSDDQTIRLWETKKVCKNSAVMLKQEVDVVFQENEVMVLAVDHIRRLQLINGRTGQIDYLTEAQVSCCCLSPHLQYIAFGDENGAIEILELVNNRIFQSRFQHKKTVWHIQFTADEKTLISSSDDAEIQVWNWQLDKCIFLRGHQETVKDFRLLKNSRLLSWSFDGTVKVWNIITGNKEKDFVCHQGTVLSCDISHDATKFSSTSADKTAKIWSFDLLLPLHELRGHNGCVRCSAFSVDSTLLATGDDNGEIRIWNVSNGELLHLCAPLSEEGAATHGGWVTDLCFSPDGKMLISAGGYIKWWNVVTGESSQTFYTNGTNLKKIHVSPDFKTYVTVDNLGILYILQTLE

Keap1/Nrf2 = Keap1/Nrf2 (Homo sapiens, UniProt Q14145); experiment: Keap1-Nrf2 protein-protein interaction inhibitors, dose response, biochemical, fluorescence polarization, cherry-picked samples (AID 588683)
BJ = experiment: cytotoxicity toward Ras-transformed BJeLR fibroblasts, dose response, cell-based, alamar blue fluorescence, cherrypicked samples (AID 2631); type: functional; conditions: Homo sapiens;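 further: confirmatory dose-response assay in RAS-dependent BJ fibroblasts engineered with TERT, LT and ST, with cytotoxicity read by fluorescence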
[7] = cytotoxicity in HEK-293T NF-kB-Luc cells, dose response, cytotoxicity control for B/T-cell NF-kB inhibitor project, cell-based, uHTS hits (AID 489019); type: functional;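 further: IC50 reflects cytotoxicity as loss of cell viability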

Chain of 14-3-3 protein gamma (P61981 whole entry): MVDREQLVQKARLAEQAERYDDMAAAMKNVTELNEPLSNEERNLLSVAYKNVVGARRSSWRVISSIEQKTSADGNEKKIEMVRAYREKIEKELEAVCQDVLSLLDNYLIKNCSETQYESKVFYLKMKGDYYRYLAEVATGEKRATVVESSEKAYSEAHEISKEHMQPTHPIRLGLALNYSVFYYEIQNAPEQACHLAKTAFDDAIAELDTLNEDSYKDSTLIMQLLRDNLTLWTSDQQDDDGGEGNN
Chain of UDP-galactopyranose mutase (P9WIQ1 whole entry): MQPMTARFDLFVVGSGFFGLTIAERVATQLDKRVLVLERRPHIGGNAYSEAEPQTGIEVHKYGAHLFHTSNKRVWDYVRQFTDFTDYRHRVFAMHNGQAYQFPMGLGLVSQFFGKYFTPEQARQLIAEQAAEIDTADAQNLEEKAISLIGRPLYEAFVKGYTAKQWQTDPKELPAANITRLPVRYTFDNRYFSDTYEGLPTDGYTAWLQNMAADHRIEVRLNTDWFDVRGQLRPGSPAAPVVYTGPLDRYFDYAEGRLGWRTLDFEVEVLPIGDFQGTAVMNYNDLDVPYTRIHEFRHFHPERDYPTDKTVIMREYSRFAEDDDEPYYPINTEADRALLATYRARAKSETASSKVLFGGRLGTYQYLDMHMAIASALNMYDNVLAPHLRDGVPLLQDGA
Chain of Transitional endoplasmic reticulum ATPase (Homo sapiens, UniProt P55072) (P55072 whole entry): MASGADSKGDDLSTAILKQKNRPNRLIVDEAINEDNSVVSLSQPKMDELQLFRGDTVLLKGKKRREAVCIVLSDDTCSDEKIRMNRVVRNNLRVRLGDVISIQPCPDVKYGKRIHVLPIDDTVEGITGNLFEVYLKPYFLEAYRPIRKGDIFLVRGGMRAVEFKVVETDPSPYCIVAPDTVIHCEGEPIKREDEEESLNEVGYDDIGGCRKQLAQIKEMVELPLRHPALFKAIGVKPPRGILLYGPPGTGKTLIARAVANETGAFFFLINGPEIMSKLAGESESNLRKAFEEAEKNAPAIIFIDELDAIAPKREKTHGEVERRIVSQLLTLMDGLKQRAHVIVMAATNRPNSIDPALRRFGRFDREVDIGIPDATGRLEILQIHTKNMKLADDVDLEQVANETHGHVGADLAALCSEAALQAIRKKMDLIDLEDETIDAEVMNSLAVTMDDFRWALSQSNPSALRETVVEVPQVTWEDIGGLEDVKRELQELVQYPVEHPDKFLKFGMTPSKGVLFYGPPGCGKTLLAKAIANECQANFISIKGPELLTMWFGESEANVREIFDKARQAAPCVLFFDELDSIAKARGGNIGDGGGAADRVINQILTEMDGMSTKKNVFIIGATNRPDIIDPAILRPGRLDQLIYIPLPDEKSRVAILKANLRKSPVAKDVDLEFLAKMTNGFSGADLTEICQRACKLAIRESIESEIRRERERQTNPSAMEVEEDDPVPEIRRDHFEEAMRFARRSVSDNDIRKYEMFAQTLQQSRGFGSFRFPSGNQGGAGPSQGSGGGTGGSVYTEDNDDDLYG
Chain of Keap1/Nrf2 (Q16236 whole entry): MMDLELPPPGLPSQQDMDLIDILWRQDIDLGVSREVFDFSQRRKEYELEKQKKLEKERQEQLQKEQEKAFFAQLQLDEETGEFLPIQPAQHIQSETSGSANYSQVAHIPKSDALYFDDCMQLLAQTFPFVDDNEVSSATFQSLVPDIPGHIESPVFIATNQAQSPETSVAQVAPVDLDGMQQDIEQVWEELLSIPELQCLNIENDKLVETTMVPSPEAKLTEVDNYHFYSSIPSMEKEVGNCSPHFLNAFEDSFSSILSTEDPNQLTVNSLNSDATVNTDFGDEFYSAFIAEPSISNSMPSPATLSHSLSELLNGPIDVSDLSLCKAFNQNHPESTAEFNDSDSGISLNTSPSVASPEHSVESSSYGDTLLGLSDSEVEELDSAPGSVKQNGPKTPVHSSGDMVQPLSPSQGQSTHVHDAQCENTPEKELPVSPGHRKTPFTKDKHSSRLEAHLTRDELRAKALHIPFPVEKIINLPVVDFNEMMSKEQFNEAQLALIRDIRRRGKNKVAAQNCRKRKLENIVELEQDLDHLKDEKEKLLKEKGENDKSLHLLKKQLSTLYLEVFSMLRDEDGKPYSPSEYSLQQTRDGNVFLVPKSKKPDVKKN
Chain of Keap1/Nrf2 (Q14145 whole entry): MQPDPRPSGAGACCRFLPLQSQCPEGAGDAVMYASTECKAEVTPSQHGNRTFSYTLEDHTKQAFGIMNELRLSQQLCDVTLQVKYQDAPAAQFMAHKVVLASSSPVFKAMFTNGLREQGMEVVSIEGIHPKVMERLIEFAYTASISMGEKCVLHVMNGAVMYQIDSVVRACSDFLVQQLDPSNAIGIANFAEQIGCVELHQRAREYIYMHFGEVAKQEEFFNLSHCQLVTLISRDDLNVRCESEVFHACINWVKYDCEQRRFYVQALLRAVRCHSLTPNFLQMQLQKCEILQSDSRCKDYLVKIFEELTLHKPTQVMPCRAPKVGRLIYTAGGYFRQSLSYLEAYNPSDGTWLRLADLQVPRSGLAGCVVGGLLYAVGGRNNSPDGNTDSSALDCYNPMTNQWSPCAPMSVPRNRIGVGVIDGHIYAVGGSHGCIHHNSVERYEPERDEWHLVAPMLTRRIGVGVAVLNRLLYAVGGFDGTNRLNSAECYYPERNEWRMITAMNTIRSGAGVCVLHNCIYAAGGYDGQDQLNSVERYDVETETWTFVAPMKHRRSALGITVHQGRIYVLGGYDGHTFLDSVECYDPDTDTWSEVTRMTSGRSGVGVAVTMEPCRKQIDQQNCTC
Chain of Protein S100-A4 (P26447 whole entry): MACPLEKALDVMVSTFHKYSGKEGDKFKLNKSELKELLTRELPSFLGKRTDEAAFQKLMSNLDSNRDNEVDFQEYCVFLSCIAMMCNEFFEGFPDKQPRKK
Chain of Transitional endoplasmic reticulum ATPase (Homo sapiens, UniProt P55072, C522A) (P55072 2-806 C522A limits assumed): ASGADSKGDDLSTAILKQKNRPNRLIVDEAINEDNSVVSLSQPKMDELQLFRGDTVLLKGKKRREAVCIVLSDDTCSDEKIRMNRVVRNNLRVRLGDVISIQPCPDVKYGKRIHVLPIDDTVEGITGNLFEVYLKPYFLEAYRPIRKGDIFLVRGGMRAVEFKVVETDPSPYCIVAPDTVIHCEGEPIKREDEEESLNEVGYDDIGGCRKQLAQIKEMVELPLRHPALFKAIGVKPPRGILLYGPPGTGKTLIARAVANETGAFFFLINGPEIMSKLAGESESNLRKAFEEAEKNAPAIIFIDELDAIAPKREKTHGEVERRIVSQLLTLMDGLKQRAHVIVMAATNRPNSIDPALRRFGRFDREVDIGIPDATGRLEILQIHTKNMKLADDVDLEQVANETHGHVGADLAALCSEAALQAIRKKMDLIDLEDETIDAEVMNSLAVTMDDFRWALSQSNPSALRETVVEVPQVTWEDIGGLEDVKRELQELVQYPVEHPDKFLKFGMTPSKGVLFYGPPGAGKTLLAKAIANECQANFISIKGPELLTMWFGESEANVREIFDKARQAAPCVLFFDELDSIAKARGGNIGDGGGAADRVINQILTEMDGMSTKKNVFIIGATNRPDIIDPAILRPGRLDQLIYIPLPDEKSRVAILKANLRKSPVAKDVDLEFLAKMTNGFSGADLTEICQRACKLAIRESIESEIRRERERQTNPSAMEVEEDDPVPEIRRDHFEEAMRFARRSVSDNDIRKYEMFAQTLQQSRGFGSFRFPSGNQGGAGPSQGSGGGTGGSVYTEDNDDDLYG

## COC(=O)CCCc1nc2ccccc2s1
[1]
  IC50: > 100 µM (not active)

## N#C/C=C/c1ccccc1Nc1ccc(S(N)(=O)=O)cc1
[2]
  IC50: > 50 µM (not active)
[3]
  IC50: > 50 µM (not active)

## COc1cccc2c1C(=O)c1c(O)c3c(c(O)c1C2=O)C[C@@](O)(C(=O)CO)C[C@@H]3O[C@H]1C[C@H](N)[C@H](O)[C@H](C)O1 [DOXORUBICIN HYDROCHLORIDE]
[4]
  AC50: 32.2 µM (active)
Streptococcus
  EC50: 3.69 µM (active)
Protein S100-A4
  AC50: 0.323 µM (active)
14-3-3 protein gamma
  IC50: < 0.781 µM (active)
ORF 73
  AC50: 1.46 µM (active)
[5]
  EC50: 0.518 µM (active)
HeLa
  AC50: 4.38 µM (active)
[6]
  IC50: 21.2 µM (active)
Keap1/Nrf2
  AC50: 43.4 µM (active)
BJ
  EC50: < 0.104 µM (active)
[7]
  IC50: > 80 µM (inactive)
